In publication PMC7539012, “Hyperphosphorylated tau aggregation and cytotoxicity modulators screen identified prescription drugs linked to Alzheimer's disease and cognitive functions” (Scientific Reports, 2020):
Structures can show the parent of a compound that is named as a salt.

What follows are compounds tested on T1, 1N4R p-tau (assay: p-tau aggregation modulator screen of 1280-compound library (ThS fluorescence net change over 16 h)). Details: not given.
T1 construct: made in house; host or cells: E. coli (PIMAX system)
Type: biochemical
Set-up: key to PTAI>3SD: *: PTAI>3SD
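Wherever ThS net change is given: 30 µM compound with 6 µM p-tau over 16 h.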

Compound	ThS net change
CC[N+]1(C)CCCC(OC(=O)C(O)(c2ccccc2)c2ccccc2)C1 (stereo not shown) [Pipenzolate bromide]	395
CCC(=O)O[C@@](Cc1ccccc1)(c1ccccc1)[C@@H](C)CN(C)C [Levopropoxyphene napsylate]	434
O=C(Oc1cccc2cccnc12)c1ccccc1 [Benzoxiquine]	287
CCN(CC)CCCC(C)Nc1c2ccc(Cl)cc2nc2ccc(OC)cc12.Cl.Cl.O.O (stereo not shown) [Quinacrine dihydrochloride hydrate]	203

Same assay, conditions: 1280-compound library screen; ThS fluorescence net change over 16 h

Compound	ThS net change
CCn1cc(C(=O)O)c(=O)c2cnc(N3CCCC3)nc21 [Piromidic acid]	394
CCN(CC)CCNC(=O)c1ccc(N)cc1 [Procainamide hydrochloride]	379
COc1c(N2C[C@@H]3CCCN[C@@H]3C2)c(F)cc2c(=O)c(C(=O)O)cn(C3CC3)c12 [Moxifloxacin]	413
C[C@H]1NC(=O)NC1=O [Methylhydantoin-5-(D)]	384
Cn1cnc2c1c(=O)[nH]c(=O)n2C [Theobromine]	392
Cc1cccc(C)c1OCC(C)N (stereo not shown) [Mexiletine hydrochloride]	381
Cl.Clc1ccc(C(OCCN2CCCCC2)c2ccccc2)cc1 (stereo not shown) [Cloperastine hydrochloride]	386
CN(C)CCOC(=O)C(c1ccccc1)C1(O)CCCC1 (stereo not shown) [Cyclopentolate hydrochloride]	412
O=C([O-])CCNC(=O)c1ccc(/N=N/c2ccc(O)c(C(=O)[O-])c2)cc1.[Na+].[Na+] [Balsalazide Sodium]	399

Same assay, conditions: 1280-compound library screen; […]

Compound	ThS net change
C[C@H](N)[C@H](O)c1ccc(O)c(O)c1 [Levonordefrin]	387
Molsidomine	401
CC(=O)Nc1c(I)c(NC(C)=O)c(I)c(C(=O)O)c1I.O.O [Diatrizoic acid dihydrate]	407
Cl.O.O.O=C1CC[C@@]2(O)[C@H]3Cc4ccc(O)c5c4[C@@]2(CCN3CC2CC2)[C@H]1O5 [Naltrexone hydrochloride dihydrate]	408

Same assay, conditions: flag: p-tau aggregation inhibitor, ThS net change more than 3 SD from mean

Compound	PTAI>3SD
O=C1CN2Cc3c(ccc(Cl)c3Cl)N=C2N1 [Anagrelide]	*

Same assay, conditions: library screen, ThS fluorescence net change over 16 h with p-tau

Compound	ThS net change
CN1CCC[C@@H]1CCO[C@](C)(c1ccccc1)c1ccc(Cl)cc1 [Clemastine fumarate]	268
COc1ccc(C(=O)CC(=O)c2ccc(C(C)(C)C)cc2)cc1 [Avobenzone]	250
O=C1CN2Cc3c(ccc(Cl)c3Cl)N=C2N1 [Anagrelide]	22
CCSc1ccc2c(c1)N(CCCN1CCN(C)CC1)c1ccccc1S2.O=C(O)CC(O)C(=O)O.O=C(O)CC(O)C(=O)O [Thiethylperazine dimalate]	317
CN1CCC(=C2c3ccccc3Sc3ccccc32)CC1 [Pimethixene maleate]	320
CC(=O)Oc1ccccc1C(=O)Nc1ncc([N+](=O)[O-])s1 [Nitazoxanide]	198
CN1CCN(CCCN2c3ccccc3Sc3ccc(S(=O)(=O)N(C)C)cc32)CC1.CS(=O)(=O)O.CS(=O)(=O)O [Thioproperazine dimesylate]	314
COc1ccc(-c2cc(=O)c3c(O)cc(O[C@@H]4O[C@H](CO[C@@H]5O[C@@H](C)[C@H](O)[C@@H](O)[C@H]5O)[C@@H](O)[C@H](O)[C@H]4O)cc3o2)cc1O [Diosmin]	211
CN(C)CC/C=C1\c2ccccc2CSc2ccccc21 [Dosulepin hydrochloride]	311
CC(=O)c1ccc2c(c1)N(CCCN(C)C)c1ccccc1S2.O=C(O)/C=C\C(=O)O [Acetopromazine maleate salt]	267

Same assay, conditions: p-tau aggregation modulator screen of 1280-compound library; ThS fluorescence net change

Compound	ThS net change
C[N+](C)(CCOc1ccccc1)Cc1ccccc1.O=C([O-])c1cc2ccccc2cc1O [Bephenium hydroxynaphthoate]	370
CC[N+](CC)(CC)CCOc1cccc(OCC[N+](CC)(CC)CC)c1OCC[N+](CC)(CC)CC [Gallamine triethiodide]	363
C[C@@H]1CC[C@H]2[C@@H](C)C(=O)O[C@@H]3O[C@@]4(C)CC[C@@H]1[C@]32OO4 [Artemisinin]	356
NS(=O)(=O)c1cc(C(=O)O)c(NCc2ccco2)cc1Cl [Furosemide]	360
CCOC(=O)C1=C(COCCN)NC(C)=C(C(=O)OC)C1c1ccccc1Cl (stereo not shown) [Amlodipine]	351
CC(=O)N(CC(C)C(=O)O)c1c(I)cc(I)c(N)c1I (stereo not shown) [Iocetamic acid]	365
O=C(CCCN1CCC(O)(c2ccc(Br)cc2)CC1)c1ccc(F)cc1 [Bromperidol]	337
Cc1cccc(C)c1NC(=O)CN1CCN(CCCC(c2ccc(F)cc2)c2ccc(F)cc2)CC1 [Lidoflazine]	341
CCn1cc(C(=O)O)c(=O)c2cc(F)c(N3CCN(C)CC3)cc21 [Pefloxacine]	352
Nc1nc(N)c2nc(-c3ccccc3)c(N)nc2n1 [Triamterene]	354
COCCOC(=O)C1=C(C)NC(C)=C(C(=O)OC(C)C)C1c1cccc([N+](=O)[O-])c1 (stereo not shown) [Nimodipine]	343
Cc1ncc(CO)c(CO)c1O [Pyridoxine hydrochloride]	354
Cc1cc(=O)oc2cc(O)ccc12 [Hymecromone]	357
CNCCCC12CCC(c3ccccc31)c1ccccc12 [Maprotiline hydrochloride]	370

Same assay, conditions: p-tau aggregation modulator screen of 1280-compound library; […]

Compound	ThS net change
COc1cc2nc(N3CCN(C(=O)c4ccco4)CC3)nc(N)c2cc1OC [Prazosin hydrochloride]	367
CS(=O)(=O)O.O.O=C(O[C@@H]1C[C@@H]2C[C@@H]3C[C@H](C1)N2CC3=O)c1c[nH]c2ccccc12 [Dolasetron mesilate]	353

Same assay, conditions: p-tau aggregation modulator screen of the compound library, ThS fluorescence net change

Compound	ThS net change
O=C1[C@H](CC[C@H](O)c2ccc(F)cc2)[C@@H](c2ccc(O)cc2)N1c1ccc(F)cc1 [Ezetimibe]	466
Cc1c(C)c2c(c(C)c1O)CCC(C)(COc1ccc(CC3SC(=O)NC3=O)cc1)O2 (stereo not shown) [Troglitazone]	451
O=C(C1CCCCC1)N1CC(=O)N2CCc3ccccc3C2C1 (stereo not shown) [Praziquantel]	418
c1coc(CNc2ncnc3nc[nH]c23)c1 [6-Furfurylaminopurine]	413
CN(C)CCOC(c1ccc(Cl)cc1)c1ccccn1.O=C(O)/C=C\C(=O)O (stereo not shown) [Carbinoxamine maleate salt]	427
CC(C)(Sc1cc(C(C)(C)C)c(O)c(C(C)(C)C)c1)Sc1cc(C(C)(C)C)c(O)c(C(C)(C)C)c1 [Probucol]	414
CC[C@H]1OC(=O)[C@H](C)[C@@H](O[C@H]2C[C@@](C)(OC)[C@@H](O)[C@H](C)O2)[C@H](C)[C@@H](O[C@@H]2O[C@H](C)C[C@H](N(C)C)[C@H]2O)[C@](C)(O)C[C@@H](C)[C@@H]2N[C@@H](COCCOC)O[C@H]([C@H]2C)[C@]1(C)O [Dirithromycin]	418
C[C@@H](O)[C@H]1C(=O)N2C(C(=O)O)=C(S[C@@H]3CN[C@H](C(=O)N(C)C)C3)[C@H](C)[C@H]12 [Meropenem]	490
CC(=O)N[C@@H](CC(C)C)C(=O)O [N-Acetyl-L-leucine]	417
Cc1ccnc2c1NC(=O)c1cccnc1N2C1CC1 [Nevirapine]	427
CCOc1cc(CC(=O)N[C@@H](CC(C)C)c2ccccc2N2CCCCC2)ccc1C(=O)O [Repaglinide]	481
